Read-outs that look alike come from different tables or passages of the source.
Assays:
RORγt [1] = target: T1, RORγt (Homo sapiens, UniProt P51449); assay: RORγt binding test using fluorescent-labeled synthetic ligand (TR-FRET); conditions: read-out: Binding inhibitory rate of fluorescent-labeled synthetic ligand to RORγt at test compound 1 μM (%)
T1 sequence (P51449 1-497 isoform P51449-2): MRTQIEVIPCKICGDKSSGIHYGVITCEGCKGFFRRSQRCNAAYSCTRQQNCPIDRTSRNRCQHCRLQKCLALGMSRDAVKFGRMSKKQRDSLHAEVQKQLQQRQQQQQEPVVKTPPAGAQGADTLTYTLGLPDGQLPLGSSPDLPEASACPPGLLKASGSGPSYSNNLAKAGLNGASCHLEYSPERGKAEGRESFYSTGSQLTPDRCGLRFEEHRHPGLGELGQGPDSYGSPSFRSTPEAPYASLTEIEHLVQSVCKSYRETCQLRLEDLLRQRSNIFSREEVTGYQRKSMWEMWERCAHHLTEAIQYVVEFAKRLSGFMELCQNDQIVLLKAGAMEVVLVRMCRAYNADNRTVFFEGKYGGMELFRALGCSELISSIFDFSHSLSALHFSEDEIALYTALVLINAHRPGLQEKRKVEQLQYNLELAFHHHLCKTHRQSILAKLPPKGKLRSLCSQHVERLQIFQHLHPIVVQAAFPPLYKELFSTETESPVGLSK
Procedure, shortened: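 His-tagged RORγt (diluted to 240 nM) with compound, then fluorescent synthetic ligand (diluted to 12 μM), 20 min at room temperature, followed by Tb anti-His antibody (diluted to 8 nM), 20 min.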

RORγt [2] = target: T1, RORγt; assay: Cofactor recruitment test (Alpha Screen, biotinylated SRC-1 peptide); type: biochemical; conditions: read-out: Signal value inhibitory rate at test compound 1 μM (%)
Protocol: Cofactor Recruitment Test
Cofactor recruitment test was performed by Alpha Screen (Histidine Detection Kit, PerkinElmer) method. First, a test compound was diluted with an assay buffer (50 mM Tris-HCl (pH 7.5), 50 mM KCl, 1 mM DTT, 0.1% BSA) and added to a 384 well plate by 5 μL. […] The mixture was stood in a dark place for 1 hr, and the signal value was measured by Envision (PerkinElmer).

RORγt [3] = target: T1, RORγt; assay: Jurkat reporter test (human IL-17 ROR response element luciferase, RORγt vector); type: cell-based; conditions: read-out: Luminescence level inhibitory rate at test compound 3 μM (%)
Procedure, shortened: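 Luminescence (Bright-Glo, 10 min, RT) was measured after overnight compound treatment of electroporated Jurkat cells (1350 V, 10 ms interval, 3 pulses). The reaction medium was RPMI with 10% lipid-reduced FCS, 10 mM HEPES (pH 7.5) and 5 μM lovastatin.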

IL-17A gene expression = assay: Effect on IL-23-induced cytokine expression in mice; type: in vivo, Balb/c mice; conditions: Mus musculus, 30 min before and 8 hr after IL-23, versus the negative control group, read-out: Percent inhibition of IL-17A gene expression; for inhibition in vivo at 30 mg/kg: dose 30 mg/kg oral
Protocol: Effect on IL-23-induced Cytokine Expression in Mice
A mouse IL-23 solution (500 ng/10 μL, prepared by Takeda Pharmaceutical Company Limited) or PBS (10 μL, negative control group) was administered intradermally in the ear of Balb/c mice (Charles River Japan, male, 7 weeks old). Twenty-four hr after administration, the ear was resected under isoflurane anesthesia. The test compound was suspended in 0.5% methylcellulose and administered orally 30 min before and 8 hr after IL-23 administration.
RNA extraction from the ear tissue and quantitative PCR were performed as follows. Specifically, ear tissue 5 mm in diameter was punched from an area of the resected ear centering on the IL-23 injection site, and the tissue was immersed in RNAlater (QIAGEN) for at least 18 hr. The RNAlater-treated ear tissue was homogenized in 350 μL of RLT buffer (RNeasy mini kit, QIAGEN) and treated (55° C., 10 min) with Proteinase K (QIAGEN). Total RNA was then extracted according to the RNeasy mini kit protocol. The RNA thus obtained was then reverse transcribed into cDNA using the High-Capacity RNA-to-cDNA kit (Applied Biosystems), and the amount of each cytokine expressions was measured by real-time PCR (Viia7™, Applied Biosystems). The PCR buffer used was TaqMan Fast Advanced Master Mix (Applied Biosystems), and TaqMan Gene Expression Assays (Applied Biosystems) Mm00439618 ml (IL-17A) and 4352341E (β-actin) were used for cytokine gene detection. The IL-17A gene expression level was normalized to the R-actin gene expression level, and the percent inhibition of IL-17A gene expression with the test compound was then calculated.
The results obtained with the above-described method (percent inhibition of IL-17A gene expression with oral administration of the test compound) are shown in Table 5.

RORγt [4] = target: T1, RORγt; assay: RORγt binding test using fluorescent-labeled cholesterol (TR-FRET); conditions: read-out: Binding inhibitory rate of fluorescent-labeled cholesterol to RORγt at test compound 1 μM (%)
Procedure, shortened: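 After 20 min at room temperature with His-tagged RORγt and BODIPY-cholesterol in pH 7.5 Tris buffer (NaCl, DTT, BSA), compound wells got terbium anti-His antibody for another 20 min. Time-resolved FRET was read with excitation 320 nm, emission 520 nm and a 100 µs delay.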

[5] = test compound 3 μM, Jurkat cells

Row | Compound | inhibition at 1 µM (RORγt [1]) | inhibition at 1 µM (RORγt [2]) | inhibition at 3 µM (RORγt [3]; Jurkat) | inhibition in vivo at 10 mg/kg (IL-17A gene expression; dose 10 mg/kg oral) | inhibition in vivo at 30 mg/kg (IL-17A gene expression) | inhibition at 1 µM (RORγt [4]) | inhibition at 3 µM (RORγt [3]; [5])
1 | COc1ccc2c(n1)CCN(C(=O)N1CC(CC(=O)O)C1)[C@H]2C(=O)Nc1cc(F)c([Si](C)(C)C)c(F)c1 [Example 281, (1-(((5R)-5-((3,5-difluoro-4-(trimethylsilyl)phenyl)carbamoyl)-2-methoxy-7,8-dihydro-1,6-naphthyridin-6(5H)-yl)carbonyl)azetidin-3-yl)acetic acid] | 102% | 89% | 102% | 93% |  |  | 
2 | COc1ccc2c(c1)CCN(C(=O)CCCC(=O)O)[C@H]2C(=O)Nc1cc(F)c2c(c1)CCC2(C)C [Example 176, 5-((1R)-1-((7-fluoro-1,1-dimethyl-2,3-dihydro-1H-inden-5-yl)carbamoyl)-6-methoxy-3,4-dihydroisoquinolin-2 (1H)-yl)-5-oxopentanoic acid] |  |  |  |  | 91% |  | 
3 | COc1ccc2c(c1)CCN(C(=O)CCCC(=O)O)[C@H]2C(=O)Nc1cc(F)c(C(C)(C)C)c(F)c1 [Example 109, 5-((1R)-1-((4-tert-butyl-3,5-difluorophenyl)carbamoyl)-6-methoxy-3,4-dihydroisoquinolin-2(1H)-yl)-5-oxopentanoic acid] |  |  |  |  | 96% |  | 
4 | COc1ccc2c(n1)CCN(C(=O)CCCC(=O)O)[C@H]2C(=O)Nc1cc(F)c([Si](C)(C)C)c(F)c1 [Example 125, 5-((5R)-5-((3,5-difluoro-4-(trimethylsilyl)phenyl)carbamoyl)-2-methoxy-7,8-dihydro-1,6-naphthyridin-6(5H)-yl)-5-oxopentanoic acid] |  |  |  |  | 89% |  | 
5 | CCOc1ccc2c(n1)CCN(C(=O)CCCC(=O)O)[C@H]2C(=O)Nc1ccc([Si](C)(C)C)c(F)c1 [Example 152, 5-((5R)-2-ethoxy-5-((3-fluoro-4-(trimethylsilyl)phenyl)carbamoyl)-7,8-dihydro-1,6-naphthyridin-6(5H)-yl)-5-oxopentanoic acid] | 101% | 97% | 103% |  |  | 102% | 
6 | COCc1ccc2c(c1)CCN(C(=O)c1cc(O)no1)[C@H]2C(=O)Nc1cc(F)c2c(c1)CCC2(C)C [Example 133, (1R)-N-(7-fluoro-1,1-dimethyl-2,3-dihydro-1H-inden-5-yl)-2-((3-hydroxy-1,2-oxazol-5-yl)carbonyl)-6-(methoxymethyl)-1,2,3,4-tetrahydroisoquinoline-1-carboxamide] | 101% | 96% |  |  |  | 103% | 103%
7 | COCc1ccc2c(c1)CCN(C(=O)Cc1cc(O)no1)[C@H]2C(=O)Nc1ccc([Si](C)(C)C)c(F)c1 [Example 101, (1R)-N-(3-fluoro-4-(trimethylsilyl)phenyl)-2-((3-hydroxy-1,2-oxazol-5-yl)acetyl)-6-(methoxymethyl)-1,2,3,4-tetrahydroisoquinoline-1-carboxamide] | 102% | 99% | 103% |  |  | 102% | 
8 | COc1ccc2c(c1)CCN(C(=O)CC(F)(F)F)[C@H]2C(=O)Nc1cc(F)c(C(C)(C)C(=O)N2CCCC2)c(F)c1 [Example 104, (1R)-N-(3,5-difluoro-4-(2-methyl-1-oxo-1-(pyrrolidin-1-yl)propan-2-yl)phenyl)-6-methoxy-2-(3,3,3-trifluoropropanoyl)-1,2,3,4-tetrahydroisoquinoline-1-carboxamide] | 101% | 101% |  |  |  | 102% | 102%
9 | COc1ccc2c(c1)CCN(C(=O)Cc1cc(O)no1)[C@H]2C(=O)Nc1ccc([Si](C)(C)C)c(C#N)c1 [Example 72, (1R)-N-(3-cyano-4-(trimethylsilyl)phenyl)-2-((3-hydroxy-1,2-oxazol-5-yl)acetyl)-6-methoxy-1,2,3,4-tetrahydroisoquinoline-1-carboxamide] | 102% | 94% | 100% |  |  | 104% | 
10 | CCOCC(C)(C)c1c(F)cc(NC(=O)[C@H]2c3ccc(OCC)cc3CCN2C(=O)CCCC(=O)O)cc1F [Example 166, 5-((1R)-6-ethoxy-1-((4-(1-ethoxy-2-methylpropan-2-yl)-3,5-difluorophenyl)carbamoyl)-3,4-dihydroisoquinolin-2(1H)-yl)-5-oxopentanoic acid] | 102% | 86% |  |  |  | 100% | 99%
11 | CCOc1ccc2c(n1)CCN(C(=O)c1cc(O)no1)[C@H]2C(=O)Nc1cc(F)c([Si](C)(C)C)c(F)c1 [Example 126, (5R)-N-(3,5-difluoro-4-(trimethylsilyl)phenyl)-2-ethoxy-6-((3-hydroxy-1,2-oxazol-5-yl)carbonyl)-5,6,7,8-tetrahydro-1,6-naphthyridine-5-carboxamide] | 101% | 100% | 102% |  |  | 101% | 
12 | COc1ccc2c(c1)CCN(C(=O)Cc1cc(O)no1)[C@H]2C(=O)Nc1cc(F)c2c(c1)CCC2(C)C [Example 45, (1R)-N-(7-fluoro-1,1-dimethyl-2,3-dihydro-1H-inden-5-yl)-2-((3-hydroxy-1,2-oxazol-5-yl)acetyl)-6-methoxy-1,2,3,4-tetrahydroisoquinoline-1-carboxamide] | 102% | 76.9% |  |  |  | 103% | 99.6%
13 | COCc1ccc2c(c1)CCN(C(=O)CCCC(=O)O)[C@H]2C(=O)Nc1ccc([Si](C)(C)C)c(F)c1 [Example 110, 5-((1R)-1-((3-fluoro-4-(trimethylsilyl)phenyl)carbamoyl)-6-(methoxymethyl)-3,4-dihydroisoquinolin-2 (1H)-yl)-5-oxopentanoic acid] | 102% | 100% | 103% |  |  | 102% | 
14 | COc1ccc2c(n1)CCN(C(=O)c1cc(O)no1)[C@H]2C(=O)Nc1ccc([Si](C)(C)C)c(F)c1 [Example 79, (5R)-N-(3-fluoro-4-(trimethylsilyl)phenyl)-6-((3-hydroxy-1,2-oxazol-5-yl)carbonyl)-2-methoxy-5,6,7,8-tetrahydro-1,6-naphthyridine-5-carboxamide] | 102% | 97% | 102% |  |  | 102% | 
15 | COCC(C)(C)c1ccc(NC(=O)[C@H]2c3ccc(OC)cc3CCN2C(=O)Cc2cc(O)no2)cc1F [Example 70, (1R)-N-(3-fluoro-4-(1-methoxy-2-methylpropan-2-yl)phenyl)-2-((3-hydroxy-1,2-oxazol-5-yl)acetyl)-6-methoxy-1,2,3,4-tetrahydroisoquinoline-1-carboxamide] | 102% | 82% |  |  |  | 102% | 99%

Source: US10053468B2, “Heterocyclic compound” (TAKEDA PHARMACEUTICAL COMPANY LIMITED, priority 2013, dated 2018)
